Patent publication US6358885B1, “Substituted phenylheterocyclic herbicides” (Mississippi State University, priority 1992, dated 2002)

Legend:
Test in all cases: Test B preemergence/postemergence greenhouse plant response rating 0 to 10
blackgrass = type: in vivo, Alopecurus myosuroides; conditions: for Plant response rating, Blackgrass: 0 to 10 scale
In short: (§1)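 Test chemicals were sprayed onto freshly planted seed and, concurrently, onto young plants between the one and four leaf stage. After a twelve- to sixteen-day greenhouse period, each species was visually compared with untreated controls.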

bedstraw = type: in vivo, Galium aparine; conditions: for Plant response rating, Bedstraw: 0 to 10 scale
In short: as §1

chickweed = type: in vivo, Stellaria media; conditions: for Plant response rating, Chickweed: 0 to 10 scale
In short: as §1

rice = type: in vivo, Oryza sativa; conditions: for Plant response rating, Rice: 0 to 10 scale
In short: as §1

rape = type: in vivo, Brassica napus; conditions: for Plant response rating, Rape: 0 to 10 scale
In short: as §1

wild buckwheat = type: in vivo, Polygonum convolvulus; conditions: for Plant response rating, Wild buckwheat: 0 to 10 scale
In short: as §1

cocklebur = type: in vivo, Xanthium pensylvanicum; conditions: for Plant response rating, Cocklebur: 0 to 10 scale
In short: as §1

giant foxtail = type: in vivo, Setaria faberii; conditions: for Plant response rating, Giant foxtail: 0 to 10 scale
In short: as §1

purple nutsedge = type: in vivo, Cyperus rotundus; conditions: for Plant response rating, Nutsedge: 0 to 10 scale
In short: as §1

cotton = type: in vivo, Gossypium hirsutum; conditions: for Plant response rating, Cotton: 0 to 10 scale
In short: as §1

wild oat = type: in vivo, Avena fatua; conditions: for Plant response rating, Wild oat: 0 to 10 scale
In short: as §1

barley = type: in vivo, Hordeum vulgare; conditions: for Plant response rating, Barley: 0 to 10 scale
In short: as §1

wheat = type: in vivo, Triticum aestivum; conditions: for Plant response rating, Wheat: 0 to 10 scale
In short: as §1

sugar beet = type: in vivo, Beta vulgaris; conditions: for Plant response rating, Sugar beet: 0 to 10 scale
In short: as §1

crabgrass = type: in vivo, Digitaria spp.; conditions: for Plant response rating, Crabgrass: 0 to 10 scale
In short: as §1

morningglory = type: in vivo, Ipomoea hederacea; conditions: for Plant response rating, Morningglory: 0 to 10 scale
In short: as §1

soybean = type: in vivo, Glycine max; conditions: for Plant response rating, Soybean: 0 to 10 scale
In short: as §1

velvetleaf = type: in vivo, Abutilon theophrasti; conditions: for Plant response rating, Velvetleaf: 0 to 10 scale
In short: as §1

lambsquarters = type: in vivo, Chenopodium album; conditions: for Plant response rating, Lambsquarter: 0 to 10 scale
In short: as §1

sorghum = type: in vivo, Sorghum bicolor; conditions: for Plant response rating, Sorghum: 0 to 10 scale
In short: as §1

cheatgrass = type: in vivo, Bromus secalinus; conditions: for Plant response rating, Cheatgrass: 0 to 10 scale
In short: as §1

corn = type: in vivo, Zea mays; conditions: for Plant response rating, Corn: 0 to 10 scale
In short: as §1

barnyardgrass = type: in vivo, Echinochloa crus-galli; conditions: for Plant response rating, Barnyardgrass: 0 to 10 scale
In short: as §1

COCCOc1cc(-c2nn3c(c2Cl)CCCC3)c(Cl)cc1Cl [Compound 72]
Plant response rating, Blackgrass (blackgrass; POSTEMERGENCE, Rate 50 g/ha): 5
Plant response rating, Blackgrass (blackgrass; PREEMERGENCE, Rate 50 g/ha): 0
Plant response rating (0 to 10 scale), Blackgrass (blackgrass; PREEMERGENCE, Rate 200 g/ha): 4
Plant response rating, Blackgrass (blackgrass; Rate 200 g/ha, POSTEMERGENCE): 7
Plant response rating, Bedstraw (bedstraw; POSTEMERGENCE, Rate 50 g/ha): 7
Plant response rating, Bedstraw (bedstraw; PREEMERGENCE, Rate 50 g/ha): 0
Plant response rating (0 to 10 scale), Bedstraw (bedstraw; PREEMERGENCE, Rate 200 g/ha): 8
Plant response rating, Bedstraw (bedstraw; Rate 200 g/ha, POSTEMERGENCE): 9
Plant response rating, Chickweed (chickweed; POSTEMERGENCE, Rate 50 g/ha): 2
Plant response rating, Chickweed (chickweed; PREEMERGENCE, Rate 50 g/ha): 0
Plant response rating (0 to 10 scale), Chickweed (chickweed; PREEMERGENCE, Rate 200 g/ha): 9
Plant response rating, Chickweed (chickweed; Rate 200 g/ha, POSTEMERGENCE): 3
Plant response rating, Rice (rice; POSTEMERGENCE, Rate 50 g/ha): 4
Plant response rating, Rice (rice; PREEMERGENCE, Rate 50 g/ha): 0
Plant response rating (0 to 10 scale), Rice (rice; PREEMERGENCE, Rate 200 g/ha): 0
Plant response rating, Rice (rice; Rate 200 g/ha, POSTEMERGENCE): 6
Plant response rating, Rape (rape; POSTEMERGENCE, Rate 50 g/ha): 9
Plant response rating, Rape (rape; PREEMERGENCE, Rate 50 g/ha): 0
Plant response rating (0 to 10 scale), Rape (rape; PREEMERGENCE, Rate 200 g/ha): 6
Plant response rating, Rape (rape; Rate 200 g/ha, POSTEMERGENCE): 9
Plant response rating, Wild buckwheat (wild buckwheat; POSTEMERGENCE, Rate 50 g/ha): 10
Plant response rating, Wild buckwheat (wild buckwheat; PREEMERGENCE, Rate 50 g/ha): 0
Plant response rating (0 to 10 scale), Wild buckwheat (wild buckwheat; PREEMERGENCE, Rate 200 g/ha): 2
Plant response rating, Wild buckwheat (wild buckwheat; Rate 200 g/ha, POSTEMERGENCE): 10
Plant response rating, Cocklebur (cocklebur; POSTEMERGENCE, Rate 50 g/ha): 8
Plant response rating, Cocklebur (cocklebur; PREEMERGENCE, Rate 50 g/ha): 0
Plant response rating (0 to 10 scale), Cocklebur (cocklebur; PREEMERGENCE, Rate 200 g/ha): 0
Plant response rating, Cocklebur (cocklebur; Rate 200 g/ha, POSTEMERGENCE): 10
Plant response rating, Giant foxtail (giant foxtail; POSTEMERGENCE, Rate 50 g/ha): 4
Plant response rating, Giant foxtail (giant foxtail; PREEMERGENCE, Rate 50 g/ha): 3
Plant response rating (0 to 10 scale), Giant foxtail (giant foxtail; PREEMERGENCE, Rate 200 g/ha): 7
Plant response rating, Giant foxtail (giant foxtail; Rate 200 g/ha, POSTEMERGENCE): 5
Plant response rating, Nutsedge (purple nutsedge; POSTEMERGENCE, Rate 50 g/ha): 2
Plant response rating, Nutsedge (purple nutsedge; PREEMERGENCE, Rate 50 g/ha): 0
Plant response rating (0 to 10 scale), Nutsedge (purple nutsedge; PREEMERGENCE, Rate 200 g/ha): 4
Plant response rating, Nutsedge (purple nutsedge; Rate 200 g/ha, POSTEMERGENCE): 2
Plant response rating, Cotton (cotton; POSTEMERGENCE, Rate 50 g/ha): 10
Plant response rating, Cotton (cotton; PREEMERGENCE, Rate 50 g/ha): 0
Plant response rating (0 to 10 scale), Cotton (cotton; PREEMERGENCE, Rate 200 g/ha): 0
Plant response rating, Cotton (cotton; Rate 200 g/ha, POSTEMERGENCE): 10
Plant response rating, Wild oat (wild oat; POSTEMERGENCE, Rate 50 g/ha): 3
Plant response rating, Wild oat (wild oat; PREEMERGENCE, Rate 50 g/ha): 0
Plant response rating (0 to 10 scale), Wild oat (wild oat; PREEMERGENCE, Rate 200 g/ha): 3
Plant response rating, Wild oat (wild oat; Rate 200 g/ha, POSTEMERGENCE): 4
Plant response rating, Barley (barley; POSTEMERGENCE, Rate 50 g/ha): 4
Plant response rating, Barley (barley; PREEMERGENCE, Rate 50 g/ha): 0
Plant response rating (0 to 10 scale), Barley (barley; PREEMERGENCE, Rate 200 g/ha): 0
Plant response rating, Barley (barley; Rate 200 g/ha, POSTEMERGENCE): 5
Plant response rating, Wheat (wheat; POSTEMERGENCE, Rate 50 g/ha): 5
Plant response rating, Wheat (wheat; PREEMERGENCE, Rate 50 g/ha): 0
Plant response rating (0 to 10 scale), Wheat (wheat; PREEMERGENCE, Rate 200 g/ha): 3
Plant response rating, Wheat (wheat; Rate 200 g/ha, POSTEMERGENCE): 5
Plant response rating, Sugar beet (sugar beet; POSTEMERGENCE, Rate 50 g/ha): 10
Plant response rating, Sugar beet (sugar beet; PREEMERGENCE, Rate 50 g/ha): 0
Plant response rating (0 to 10 scale), Sugar beet (sugar beet; PREEMERGENCE, Rate 200 g/ha): 9
Plant response rating, Sugar beet (sugar beet; Rate 200 g/ha, POSTEMERGENCE): 10
Plant response rating, Crabgrass (crabgrass; POSTEMERGENCE, Rate 50 g/ha): 2
Plant response rating, Crabgrass (crabgrass; PREEMERGENCE, Rate 50 g/ha): 0
Plant response rating (0 to 10 scale), Crabgrass (crabgrass; PREEMERGENCE, Rate 200 g/ha): 9
Plant response rating, Crabgrass (crabgrass; Rate 200 g/ha, POSTEMERGENCE): 2
Plant response rating, Morningglory (morningglory; POSTEMERGENCE, Rate 50 g/ha): 7
Plant response rating, Morningglory (morningglory; PREEMERGENCE, Rate 50 g/ha): 0
Plant response rating (0 to 10 scale), Morningglory (morningglory; PREEMERGENCE, Rate 200 g/ha): 0
Plant response rating, Morningglory (morningglory; Rate 200 g/ha, POSTEMERGENCE): 9
Plant response rating, Soybean (soybean; POSTEMERGENCE, Rate 50 g/ha): 6
Plant response rating, Soybean (soybean; PREEMERGENCE, Rate 50 g/ha): 0
Plant response rating (0 to 10 scale), Soybean (soybean; PREEMERGENCE, Rate 200 g/ha): 0
Plant response rating, Soybean (soybean; Rate 200 g/ha, POSTEMERGENCE): 7
Plant response rating, Velvetleaf (velvetleaf; POSTEMERGENCE, Rate 50 g/ha): 9
Plant response rating, Velvetleaf (velvetleaf; PREEMERGENCE, Rate 50 g/ha): 0
Plant response rating (0 to 10 scale), Velvetleaf (velvetleaf; PREEMERGENCE, Rate 200 g/ha): 10
Plant response rating, Velvetleaf (velvetleaf; Rate 200 g/ha, POSTEMERGENCE): 10
Plant response rating, Lambsquarter (lambsquarters; POSTEMERGENCE, Rate 50 g/ha): 10
Plant response rating, Lambsquarter (lambsquarters; PREEMERGENCE, Rate 50 g/ha): 9
Plant response rating (0 to 10 scale), Lambsquarter (lambsquarters; PREEMERGENCE, Rate 200 g/ha): 10
Plant response rating, Lambsquarter (lambsquarters; Rate 200 g/ha, POSTEMERGENCE): 10
Plant response rating, Sorghum (sorghum; POSTEMERGENCE, Rate 50 g/ha): 5
Plant response rating, Sorghum (sorghum; PREEMERGENCE, Rate 50 g/ha): 0
Plant response rating (0 to 10 scale), Sorghum (sorghum; PREEMERGENCE, Rate 200 g/ha): 0
Plant response rating, Sorghum (sorghum; Rate 200 g/ha, POSTEMERGENCE): 6
Plant response rating, Cheatgrass (cheatgrass; POSTEMERGENCE, Rate 50 g/ha): 5
Plant response rating, Cheatgrass (cheatgrass; PREEMERGENCE, Rate 50 g/ha): 0
Plant response rating (0 to 10 scale), Cheatgrass (cheatgrass; PREEMERGENCE, Rate 200 g/ha): 3
Plant response rating, Cheatgrass (cheatgrass; Rate 200 g/ha, POSTEMERGENCE): 6
Plant response rating, Corn (corn; POSTEMERGENCE, Rate 50 g/ha): 3
Plant response rating, Corn (corn; PREEMERGENCE, Rate 50 g/ha): 0
Plant response rating (0 to 10 scale), Corn (corn; PREEMERGENCE, Rate 200 g/ha): 2
Plant response rating, Corn (corn; Rate 200 g/ha, POSTEMERGENCE): 5
Plant response rating, Barnyardgrass (barnyardgrass; POSTEMERGENCE, Rate 50 g/ha): 5
Plant response rating, Barnyardgrass (barnyardgrass; PREEMERGENCE, Rate 50 g/ha): 3
Plant response rating (0 to 10 scale), Barnyardgrass (barnyardgrass; PREEMERGENCE, Rate 200 g/ha): 3
Plant response rating, Barnyardgrass (barnyardgrass; Rate 200 g/ha, POSTEMERGENCE): 7
